Strand notation (5' to 3'): a small letter for the sugar, then the base; units joined by * are phosphorothioate-linked, units joined directly phosphodiester-linked; [ ] holds rarer units or linkages, { } end groups; capitals alone tell only the bases. e = 2'-O-(2-methoxyethyl) (MOE); [5mC] = 5-methylcytosine; d = 2'-deoxy (DNA)
What was measured:
Format in all cases: cell-based
human Factor 7 mRNA [1] = assay: Dose-dependent antisense inhibition of human Factor 7 in HepB3 cells, electroporation
Experimental: (§1) The gapmers were also transfected via electroporation and their dose-dependent inhibition of human Factor 7 mRNA was measured. Cells were plated at a density of 20,000 cells per well and transfected via electroporation with 3.125 μM, 6.25 μM, 12.5 μM, 25 μM, 50 μM, and 100 μM concentrations of antisense oligonucleotide, as specified in Table 15. After a treatment period of approximately 16 hours, RNA was isolated from the cells and Factor 7 mRNA levels were measured by quantitative real-time PCR. Human Factor 7 primer probe set RTS 2927 was used to measure mRNA levels. Factor 7 mRNA levels were adjusted according to total RNA content, as measured by RIBOGREEN®. Results are presented as percent inhibition of Factor 7, relative to untreated control cells.
as §1, with “Cells were” for “The gapmers were also transfected via electroporation and their dose-dependent inhibition of human Factor 7 mRNA was measured. Cells were”, “in […]. After a” for “in Table 15. After a”, “cells and human Factor 7” for “cells and Factor 7”

human Factor 7 mRNA [2] = assay: Antisense inhibition of human Factor 7 mRNA in HepB3 cells, 50 nM antisense oligonucleotide, lipofectin; settings: for % Inhibition: Table 13 (microwalk), 50 nM, lipofectin, approximately 24 hours
In short: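 Cells plated at 4,000 per well were transfected and harvested after approximately 24 hours of treatment. Transcript levels, measured with primer probe set RTS 2927, were normalised to total RNA by RIBOGREEN®. Values are percent inhibition relative to untreated control cells.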

human Factor 7 mRNA [3] = assay: Dose-dependent antisense inhibition of human Factor 7 in HepB3 cells, lipofectin; settings: HepB3 cells, approx. 16 hours (Table 14)
Experimental: Cells were plated at a density of 4,000 cells per well and treated with lipofectin reagent with 3.125 nM, 6.25 nM, 12.5 nM, 25 nM, 50 nM, and 100 nM concentrations of antisense oligonucleotide, as indicated in Table 3. After a treatment period of approximately 16 hours, RNA was isolated from the cells and Factor 7 mRNA levels were measured by real-time RT-PCR, as described herein. Human Factor 7 primer probe set RTS 2927 (forward sequence: […], incorporated herein as SEQ ID NO: 164; reverse sequence: […], incorporated herein as SEQ ID NO: 165; probe sequence: TGGGTGGTCTCCGCGGCCX, incorporated herein as SEQ ID NO: 166) was used to measure mRNA levels. Factor 7 mRNA levels were adjusted according to total RNA content as measured by RIBOGREEN®. Results are presented as percent inhibition of Factor 7, relative to untreated control cells.
Cells were plated at a density of 4,000 cells per well and transfected using lipofectin reagent with 6.25 nM, 12.5 nM, 25.0 nM, 50.0 nM, and 100.0 nM concentrations of antisense oligonucleotide, as indicated in Table 7. After a treatment period of approximately 16 hours, RNA was isolated from the cells and Factor 7 mRNA levels were measured by real-time RT-PCR, as described herein. Human Factor 7 primer probe set RTS 2927 was used to measure mRNA levels. Factor 7 mRNA levels were adjusted according to total RNA content as measured by RIBOGREEN®. Results are presented as percent inhibition of Factor 7, relative to untreated control cells.
Cells were plated at a density of 4,000 cells per well and transfected using lipofectin reagent with 3.125 nM, 6.25 nM, 12.5 nM, 25 nM, 50 nM, and 100 nM concentrations of antisense oligonucleotide, as specified in Table 14. After a treatment period of approximately 16 hours, RNA was isolated from the cells and Factor 7 mRNA levels were measured by quantitative real-time PCR. Human Factor 7 primer probe set RTS 2927 was used to measure mRNA levels. Factor 7 mRNA levels were adjusted according to total RNA content, as measured by RIBOGREEN®. Results are presented as percent inhibition of Factor 7, relative to untreated control cells.

[4] = 3.125 μM, approx. 16 hours (Table 15, Example 7)
[5] = 3.125 μM, approx. 16 hours (Table 16, Example 8 confirmation)
[6] = 6.25 μM, approx. 16 hours (Table 15, Example 7)
[7] = 6.25 μM, approx. 16 hours (Table 16, Example 8 confirmation)
[8] = 12.5 μM, approx. 16 hours (Table 15, Example 7)
[9] = 12.5 μM, approx. 16 hours (Table 16, Example 8 confirmation)
[10] = 25 μM, approx. 16 hours (Table 15, Example 7)
[11] = 25 μM, approx. 16 hours (Table 16, Example 8 confirmation)
[12] = 50 μM, approx. 16 hours (Table 15, Example 7)
[13] = 50 μM, approx. 16 hours (Table 16, Example 8 confirmation)
[14] = 100 μM, approx. 16 hours (Table 15, Example 7)
[15] = 100 μM, approx. 16 hours (Table 16, Example 8 confirmation)

422142 (antisense eG*eA*eG*eT*eT*d[5mC]*dT*dG*d[5mC]*dA*dG*dG*dA*dG*d[5mC]*eG*eG*e[5mC]*e[5mC]*eT) [compound 422142]
percent inhibition of Factor 7 mRNA, relative to untreated control cells (human Factor 7 mRNA [1]; [4]): 26% | percent inhibition of Factor 7 mRNA, relative to untreated control cells (human Factor 7 mRNA [1]; [5]): 34% | percent inhibition of Factor 7 mRNA, relative to untreated control cells (human Factor 7 mRNA [1]; [6]): 47% | percent inhibition of Factor 7 mRNA, relative to untreated control cells (human Factor 7 mRNA [1]; [7]): 47% | percent inhibition of Factor 7 mRNA, relative to untreated control cells (human Factor 7 mRNA [1]; [8]): 63% | percent inhibition of Factor 7 mRNA, relative to untreated control cells (human Factor 7 mRNA [1]; [9]): 62% | percent inhibition of Factor 7 mRNA, relative to untreated control cells (human Factor 7 mRNA [1]; [10]): 67% | percent inhibition of Factor 7 mRNA, relative to untreated control cells (human Factor 7 mRNA [1]; [11]): 67% | percent inhibition of Factor 7 mRNA, relative to untreated control cells (human Factor 7 mRNA [1]; [12]): 77% | percent inhibition of Factor 7 mRNA, relative to untreated control cells (human Factor 7 mRNA [1]; [13]): 65% | percent inhibition of Factor 7 mRNA, relative to untreated control cells (human Factor 7 mRNA [1]; [14]): 78% | percent inhibition of Factor 7 mRNA, relative to untreated control cells (human Factor 7 mRNA [1]; [15]): 65% | % Inhibition of human Factor 7 mRNA levels (human Factor 7 mRNA [2]; gapmers targeted to nucleobases 4868 to 4899 of SEQ ID NO: 1, Table 8): 73% | percent inhibition of Factor 7 mRNA, relative to untreated control cells (human Factor 7 mRNA [3]; 3.125 nM): 16% | percent inhibition of Factor 7 mRNA, relative to untreated control cells (human Factor 7 mRNA [3]; 12.5 nM): 51% | percent inhibition of Factor 7 mRNA, relative to untreated control cells (human Factor 7 mRNA [3]; 25 nM): 66% | percent inhibition of Factor 7 mRNA, relative to untreated control cells (human Factor 7 mRNA [3]; 50 nM): 72% | percent inhibition of Factor 7 mRNA, relative to untreated control cells (human Factor 7 mRNA [3]; 100 nM): 68% | percent inhibition of Factor 7 mRNA, relative to untreated control cells (human Factor 7 mRNA [3]): 34%

422087 (antisense e[5mC]*eA*eT*eG*e[5mC]*dA*dT*dG*dG*dT*dG*dA*dT*dG*d[5mC]*eT*eT*e[5mC]*eT*eG) [compound 422087]
percent inhibition of Factor 7 mRNA, relative to untreated control cells (human Factor 7 mRNA [1]; [4]): 22% | percent inhibition of Factor 7 mRNA, relative to untreated control cells (human Factor 7 mRNA [1]; [5]): 19% | percent inhibition of Factor 7 mRNA, relative to untreated control cells (human Factor 7 mRNA [1]; [6]): 26% | percent inhibition of Factor 7 mRNA, relative to untreated control cells (human Factor 7 mRNA [1]; [7]): 38% | percent inhibition of Factor 7 mRNA, relative to untreated control cells (human Factor 7 mRNA [1]; [8]): 48% | percent inhibition of Factor 7 mRNA, relative to untreated control cells (human Factor 7 mRNA [1]; [9]): 66% | percent inhibition of Factor 7 mRNA, relative to untreated control cells (human Factor 7 mRNA [1]; [10]): 57% | percent inhibition of Factor 7 mRNA, relative to untreated control cells (human Factor 7 mRNA [1]; [11]): 75% | percent inhibition of Factor 7 mRNA, relative to untreated control cells (human Factor 7 mRNA [1]; [12]): 72% | percent inhibition of Factor 7 mRNA, relative to untreated control cells (human Factor 7 mRNA [1]; [13]): 80% | percent inhibition of Factor 7 mRNA, relative to untreated control cells (human Factor 7 mRNA [1]; [14]): 80% | percent inhibition of Factor 7 mRNA, relative to untreated control cells (human Factor 7 mRNA [1]; [15]): 87% | % Inhibition (human Factor 7 mRNA [2]): 83% | percent inhibition of Factor 7 mRNA, relative to untreated control cells (human Factor 7 mRNA [3]; 3.125 nM): 14% | percent inhibition of Factor 7 mRNA, relative to untreated control cells (human Factor 7 mRNA [3]; 12.5 nM): 51% | percent inhibition of Factor 7 mRNA, relative to untreated control cells (human Factor 7 mRNA [3]; 25 nM): 73% | percent inhibition of Factor 7 mRNA, relative to untreated control cells (human Factor 7 mRNA [3]; 50 nM): 83% | percent inhibition of Factor 7 mRNA, relative to untreated control cells (human Factor 7 mRNA [3]; 100 nM): 90% | percent inhibition of Factor 7 mRNA, relative to untreated control cells (human Factor 7 mRNA [3]): 24%

422152 (antisense eA*eT*eG*d[5mC]*dA*dT*dG*dG*dT*dG*dA*dT*dG*d[5mC]*dT*dT*d[5mC]*eT*eG*eA) [compound 422152]
percent inhibition of Factor 7 mRNA, relative to untreated control cells (human Factor 7 mRNA [1]; [4]): 14% | percent inhibition of Factor 7 mRNA, relative to untreated control cells (human Factor 7 mRNA [1]; [6]): 22% | percent inhibition of Factor 7 mRNA, relative to untreated control cells (human Factor 7 mRNA [1]; [8]): 32% | percent inhibition of Factor 7 mRNA, relative to untreated control cells (human Factor 7 mRNA [1]; [10]): 44% | percent inhibition of Factor 7 mRNA, relative to untreated control cells (human Factor 7 mRNA [1]; [12]): 65% | percent inhibition of Factor 7 mRNA, relative to untreated control cells (human Factor 7 mRNA [1]; [14]): 76% | % Inhibition (human Factor 7 mRNA [2]): 74% | percent inhibition of Factor 7 mRNA, relative to untreated control cells (human Factor 7 mRNA [3]; 3.125 nM): 18% | percent inhibition of Factor 7 mRNA, relative to untreated control cells (human Factor 7 mRNA [3]; 12.5 nM): 47% | percent inhibition of Factor 7 mRNA, relative to untreated control cells (human Factor 7 mRNA [3]; 25 nM): 67% | percent inhibition of Factor 7 mRNA, relative to untreated control cells (human Factor 7 mRNA [3]; 50 nM): 83% | percent inhibition of Factor 7 mRNA, relative to untreated control cells (human Factor 7 mRNA [3]; 100 nM): 89% | percent inhibition of Factor 7 mRNA, relative to untreated control cells (human Factor 7 mRNA [3]): 29%
